The assay has as its target T1, recombinant C. elegans kinesin-II (heterotrimeric kinesin-2) (Caenorhabditis elegans, UniProt Q19633+Q965T6).
T1 sequence (Q19633 1-782): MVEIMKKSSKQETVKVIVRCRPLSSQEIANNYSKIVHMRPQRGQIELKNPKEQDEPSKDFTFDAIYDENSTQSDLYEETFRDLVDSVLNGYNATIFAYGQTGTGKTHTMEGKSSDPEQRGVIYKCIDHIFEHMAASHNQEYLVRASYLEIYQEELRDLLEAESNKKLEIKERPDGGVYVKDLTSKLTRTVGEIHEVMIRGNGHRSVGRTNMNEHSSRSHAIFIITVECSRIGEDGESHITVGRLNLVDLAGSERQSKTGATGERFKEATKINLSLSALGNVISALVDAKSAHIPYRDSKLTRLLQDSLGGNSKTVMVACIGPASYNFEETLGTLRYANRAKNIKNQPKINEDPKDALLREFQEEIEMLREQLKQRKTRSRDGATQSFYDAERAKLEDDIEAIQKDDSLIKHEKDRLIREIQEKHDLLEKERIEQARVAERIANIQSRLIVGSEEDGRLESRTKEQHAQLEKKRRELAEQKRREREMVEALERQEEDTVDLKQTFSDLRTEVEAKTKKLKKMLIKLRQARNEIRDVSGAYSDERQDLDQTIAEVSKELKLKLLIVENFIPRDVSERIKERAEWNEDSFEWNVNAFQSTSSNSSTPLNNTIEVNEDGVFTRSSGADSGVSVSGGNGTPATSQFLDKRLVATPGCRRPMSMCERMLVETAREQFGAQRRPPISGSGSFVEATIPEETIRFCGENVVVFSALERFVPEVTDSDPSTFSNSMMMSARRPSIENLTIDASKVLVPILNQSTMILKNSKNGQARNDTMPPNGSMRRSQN
T1 sequence (Q965T6 1-646): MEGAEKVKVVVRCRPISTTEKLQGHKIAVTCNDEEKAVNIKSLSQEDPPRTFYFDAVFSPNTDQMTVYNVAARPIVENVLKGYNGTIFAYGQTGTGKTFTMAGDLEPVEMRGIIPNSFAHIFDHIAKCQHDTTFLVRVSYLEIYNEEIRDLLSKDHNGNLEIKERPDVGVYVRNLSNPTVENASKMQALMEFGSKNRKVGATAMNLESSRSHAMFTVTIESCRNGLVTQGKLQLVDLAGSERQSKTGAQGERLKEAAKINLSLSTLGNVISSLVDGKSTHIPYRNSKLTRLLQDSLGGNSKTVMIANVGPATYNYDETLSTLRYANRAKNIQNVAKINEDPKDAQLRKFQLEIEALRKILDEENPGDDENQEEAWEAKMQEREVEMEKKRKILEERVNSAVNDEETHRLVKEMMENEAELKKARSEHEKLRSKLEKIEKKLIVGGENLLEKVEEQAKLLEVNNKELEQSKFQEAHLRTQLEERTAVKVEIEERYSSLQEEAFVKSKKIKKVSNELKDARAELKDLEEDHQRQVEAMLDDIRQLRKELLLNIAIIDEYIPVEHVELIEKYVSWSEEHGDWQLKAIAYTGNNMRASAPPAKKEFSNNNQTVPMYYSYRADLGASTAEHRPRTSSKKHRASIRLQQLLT
T1 sequence (G5EEE6 1-713 partner): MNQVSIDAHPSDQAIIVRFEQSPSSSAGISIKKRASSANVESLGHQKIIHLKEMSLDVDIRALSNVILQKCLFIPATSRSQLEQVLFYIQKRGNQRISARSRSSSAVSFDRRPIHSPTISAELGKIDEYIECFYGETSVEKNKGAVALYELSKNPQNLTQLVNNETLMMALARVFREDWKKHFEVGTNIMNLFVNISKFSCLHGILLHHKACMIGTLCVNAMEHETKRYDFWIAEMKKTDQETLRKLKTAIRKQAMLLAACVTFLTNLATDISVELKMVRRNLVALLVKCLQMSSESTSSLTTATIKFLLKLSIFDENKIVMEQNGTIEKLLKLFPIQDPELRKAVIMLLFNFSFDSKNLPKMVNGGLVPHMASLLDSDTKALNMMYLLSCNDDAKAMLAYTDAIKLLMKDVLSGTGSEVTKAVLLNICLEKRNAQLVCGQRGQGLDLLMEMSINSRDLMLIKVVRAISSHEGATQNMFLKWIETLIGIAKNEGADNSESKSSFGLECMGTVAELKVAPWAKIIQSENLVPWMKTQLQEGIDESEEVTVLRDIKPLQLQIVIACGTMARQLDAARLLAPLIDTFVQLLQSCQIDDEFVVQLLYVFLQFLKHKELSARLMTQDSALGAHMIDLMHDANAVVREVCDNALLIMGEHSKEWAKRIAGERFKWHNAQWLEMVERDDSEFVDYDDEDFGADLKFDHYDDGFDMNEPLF
As to the kind of experiment: microtubule gliding velocity assay. The class given is biochemical. To be noted: read-out: Recombinant C. elegans kinesin-II; Mg-ATP; microtubules; 21°C.

Molecules are shown by their SMILES.

With `Nc1ncnc2c1ncn2[C@@H]1O[C@H](COP(=O)(O)OP(=O)(O)OP(=O)(O)O)[C@@H](O)[C@H]1O` [Mg-ATP], the Km worked out at 280 ± 50 µM.

Values taken from publication PMC2064394 (The Journal of Cell Biology, 2006).
